Data from BindingDB's records for doi:10.1021/jm00362a020 (1983).

The compounds below were run against Glycolate oxidase (Sus scrofa) (assay: In vitro inhibition of porcine Glycolate oxidase).

IC50 [nM] | SMILES
60 | O=C(O)C(=O)CC(=O)c1ccc(-c2ccc(SCC3(O)COc4ccccc4OC3)cc2)cc1
180 | O=C(O)C(=O)CC(=O)c1ccc(-n2c(-c3ccccc3)cc3ccccc32)cc1
600 | CCCCCCCCCc1ccc(C(=O)CC(=O)C(=O)O)cc1
400 | O=C(O)C(=O)CC(=O)c1ccc(-c2ccc(SCc3ccccc3)cc2)cc1
63 | O=C(O)C(=O)CC(=O)c1ccc(-c2ccc(Br)cc2)cc1
1400 | CC1=C(C=CC(=O)CC(=O)C(=O)O)C(C)(C)CCC1
19000 | O=C(C=Cc1ccccc1)CC(=O)C(=O)O
160 | CSc1ccc(-c2ccc(C(=O)CC(=O)C(=O)O)cc2)cc1
2100 | O=C(O)C(=O)CC(=O)c1ccc(C2CCCc3ccccc32)cc1 (centres undefined)
